According to patent publication US8273340B2, “Methods and compositions for attracting or repelling cockroaches” (The United States of America, as represented by the …, priority 2008, dated 2012):

Experiments:
[1] = tested on: German roaches (B. germanica); assay: Two-harborage arena bioassay of sustained release polymer formulations; type: in vivo; details: counted after 24 hours
Excerpt: Evaluation of sustained release formulations: Three cockroach attractants (methyl tiglate, butyl heptanoate, and propyl proprionate) were formulated in one or more polymer formulations (Urethane, Pellethane, Santoprene, and/or Polyethylene) as indicated in Table 4.A sweater box (1.5×2.0×0.5 ft) provided the test arena. The sides of the arena were coated with a blend of mineral oil and Vaseline petroleum jelly. The tops of two 8 oz paper ice cream cups were tapped to the arena floor with masking tape and, prior to the addition of the test cockroaches, inverted cups without holes were fixed to the tapped lids. Twenty-five laboratory reared late stage nymphs or adult male German roaches (B. germanica), starved for 72 hrs, were added to the arena and allowed to calm down (ca. 1 hour). The starting inverted ice cream cups were carefully removed and each ice cream cup top was then supplied with a water tube (1.5 ml scintillation vial with water and stoppered with cotton), one lab chew food pellet, and either a test attractant polymer formulation or the corresponding polymer blank control. […] The cups were oriented so that the holes were facing each other. The number of roaches that sought harborage in the cups was counted after 24 hours by plugging the entrance holes with cotton, the roaches inside euthanized, and the numbers in each cup counted.

[2] = tested on: cockroach; assay: Bioassays for cockroach attraction of attractants sorbed into thermoplastic polymers; type: in vivo
Excerpt: To alleviate the reactivity with the carrier polymers, we attempted to load active compounds into a series of thermoplastic polymers including urethanes and synthetic rubbers, based on the behavior of the active compounds as plasticizers. […] Propyl propanoate, methyl hexanoate, and methyl tiglate were loaded into a series of thermoplastic granulated feed materials, including 4-(1,1,3,3-tetramethylbutyl) with ethylene-5-ethylidenebicyclo[2.2.1]hept-2-ene-propene thermoplastic synthetic rubber (Santopren™ 203-40). Santoprene™ is a thermoplastic elastomer (TPE that is a mixture of in-situ cross linking of EPDM rubber and polypropylene compounds). Because of the longer life of Santopren™ in both extreme hot and cold environments, it is often preferred over the use of rubber. Pellethane™ 2102-55D is a polyester polycaprolactone polyurethane. Methyl hexanoate and methyl tiglate were sorbed using heat and pressure (60° C., 40 psi, 30 min) into the Santoprene® and were effective in bioassays for cockroach attraction. […] Loading rates of active compounds into the Santoprene®, using slightly elevated temperature (60° C.) and 40 psi pressure, were 8-12% by wt for the two compounds.

[3] = sorbed into Santoprene (60° C., 40 psi, 30 min)

Row | SMILES | attraction to treatment harborage versus polymer blank control (in words) ([1]; formulated with Santoprene) | effect in bioassays for cockroach attraction (in words) ([2]; loaded into Dow Pellethane) | effect in bioassays for cockroach attraction (in words) [2, 3] | attraction to treatment harborage versus polymer blank control (in words) ([1]; formulated in urethane)
1 | C/C=C(\C)C(=O)OC [methyl tiglate, methyl ester of tiglic acid (trans-2-methyl-2-butenoic acid (methyl tiglate))] | significant attraction and aggregation | worked less well | effective | 
2 | CCCOC(=O)CC [Propyl Propanoate] |  | neither of these systems worked well | neither of these systems worked well | significant attraction and subsequent aggregation
